Experimental data reported in US11149040B2, “Fused triazole agonists of the APJ receptor” (AMGEN INC., priority 2017, dated 2021).

Molecular target: human APJ receptor (Homo sapiens (Human), UniProt P35414)
Assay: [35S]GTPγS binding assay on membranes from CHO cells stably expressing human APJ receptor
Type: biochemical
Settings: read-out: Activity hAPJ SPA EC50 IP
In short: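 Membranes from CHO cells stably expressing FLAG-tagged human APJ; assay buffer GDP, MgCl2 and NaCl levels optimised beforehand. Incubation 90 min at RT, imager read-out. EC50 from non-linear regression on means of several independent experiments.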

Chain of human APJ receptor (P35414 whole entry): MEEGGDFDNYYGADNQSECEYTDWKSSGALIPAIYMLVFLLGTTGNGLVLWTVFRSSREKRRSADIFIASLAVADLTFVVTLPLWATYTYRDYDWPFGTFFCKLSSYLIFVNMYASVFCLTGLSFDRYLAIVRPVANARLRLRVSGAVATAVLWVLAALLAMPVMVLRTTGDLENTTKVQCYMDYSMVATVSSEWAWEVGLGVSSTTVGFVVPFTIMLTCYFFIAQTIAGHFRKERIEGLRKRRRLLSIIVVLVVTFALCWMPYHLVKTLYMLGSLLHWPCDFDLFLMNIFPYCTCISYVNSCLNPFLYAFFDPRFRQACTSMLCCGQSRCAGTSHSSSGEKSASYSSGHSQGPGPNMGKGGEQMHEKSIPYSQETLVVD

`COC[C@@H]1COc2ncccc2-c2nnc(NS(=O)(=O)[C@@H](C)[C@H](OC(C)C)c3ncc(C)cn3)n21` (single isomer, unassigned) [Example 68.0, (1R,2S)-N-((5R)-5-(methoxymethyl)-5,6-dihydropyrido[3,2-f][1,2,4]triazolo[4,3-d][1,4]oxazepin-3-yl)-1-(5-methyl-2-pyrimidinyl)-1-(2-propanyloxy)-2-propanesulfonamide or (1R,2S)-N-((5S)-5-(methoxymethyl)-5,6-dihydropyrido[3,2-f][1,2,4]triazolo[4,3-d][1,4]oxazepin-3-yl)-1-(5-methyl-2-pyrimidinyl)-1-(2-propanyloxy)-2-propanesulfonamide] was tested. Which EC50 did it give?
Its EC50 is 3900 nM.

For `COC[C@@H]1COc2cccnc2-c2nnc(NS(=O)(=O)[C@@H](C)[C@@H](OC(C)C)c3ncc(C)cn3)n21` (single isomer, unassigned) [Example 69.0, (1S,2S)-N-((5R)-5-(methoxymethyl)-5,6-dihydropyrido[2,3-f][1,2,4]triazolo[4,3-d][1,4]oxazepin-3-yl)-1-(5-methyl-2-pyrimidinyl)-1-(2-propanyloxy)-2-propanesulfonamide or (1S,2S)-N-((5S)-5-(methoxymethyl)-5,6-dihydropyrido[2,3-f][1,2,4]triazolo[4,3-d][1,4]oxazepin-3-yl)-1-(5-methyl-2-pyrimidinyl)-1-(2-propanyloxy)-2-propanesulfonamide], which EC50 is on record?
Its EC50 is 230 nM.

With `COC[C@@H]1COc2cccnc2-c2nnc(NS(=O)(=O)[C@@H](C)[C@@H](OC(C)C)c3ncc(C)cn3)n21` (single isomer, unassigned) [Example 70.0, (1S,2S)-N-((5R)-5-(methoxymethyl)-5,6-dihydropyrido[2,3-f][1,2,4]triazolo[4,3-d][1,4]oxazepin-3-yl)-1-(5-methyl-2-pyrimidinyl)-1-(2-propanyloxy)-2-propanesulfonamide or (1S,2S)-N-((5S)-5-(methoxymethyl)-5,6-dihydropyrido[2,3-f][1,2,4]triazolo[4,3-d][1,4]oxazepin-3-yl)-1-(5-methyl-2-pyrimidinyl)-1-(2-propanyloxy)-2-propanesulfonamide] as the compound, how does the EC50 read?
Its EC50 is 1210 nM.

For `COc1ccc2c(c1)-c1nnc(NS(=O)(=O)[C@@H](C)[C@@H](OC(C)C)c3ncc(C)cn3)n1C(CO)CO2` (single isomer, unassigned) [Example 150.0, (1S,2S)-N-((5R)-5-(hydroxymethyl)-10-methoxy-5,6-dihydro[1,2,4]triazolo[4,3-d][1,4]benzoxazepin-3-yl)-1-(5-methyl-2-pyrimidinyl)-1-(2-propanyloxy)-2-propanesulfonamide or (1S,2S)-N-((5S)-5-(hydroxymethyl)-10-methoxy-5,6-dihydro[1,2,4]triazolo[4,3-d][1,4]benzoxazepin-3-yl)-1-(5-methyl-2-pyrimidinyl)-1-(2-propanyloxy)-2-propanesulfonamide], which EC50 is on record?
Its EC50 is 1880 nM.

Which EC50 does the source give for `COc1ccc2c(c1)-c1nnc(NS(=O)(=O)[C@@H](C)[C@@H](OC(C)C)c3ncc(C)cn3)n1C(CO)CO2` (single isomer, unassigned) [Example 151.0, (1S,2S)-N-((5R)-5-(hydroxymethyl)-10-methoxy-5,6-dihydro[1,2,4]triazolo[4,3-d][1,4]benzoxazepin-3-yl)-1-(5-methyl-2-pyrimidinyl)-1-(2-propanyloxy)-2-propanesulfonamide or (1S,2S)-N-((5S)-5-(hydroxymethyl)-10-methoxy-5,6-dihydro[1,2,4]triazolo[4,3-d][1,4]benzoxazepin-3-yl)-1-(5-methyl-2-pyrimidinyl)-1-(2-propanyloxy)-2-propanesulfonamide] here?
The EC50 was 1270 nM.

`COCC1COc2ccc(OC)cc2-c2nnc(NS(=O)(=O)[C@@H](C)[C@@H](OC(C)C)c3ncc(C)cn3)n21` (single isomer, unassigned) [Example 152.0, (1S,2S)-N-((5R)-10-methoxy-5-(methoxymethyl)-5,6-dihydro[1,2,4]triazolo[4,3-d][1,4]benzoxazepin-3-yl)-1-(5-methyl-2-pyrimidinyl)-1-(2-propanyloxy)-2-propanesulfonamide or (1S,2S)-N-((5S)-10-methoxy-5-(methoxymethyl)-5,6-dihydro[1,2,4]triazolo[4,3-d][1,4]benzoxazepin-3-yl)-1-(5-methyl-2-pyrimidinyl)-1-(2-propanyloxy)-2-propanesulfonamide] was tested. Which EC50 did it give?
Its EC50 is 37 nM.

`COCC1COc2ccc(OC)cc2-c2nnc(NS(=O)(=O)[C@@H](C)[C@@H](OC(C)C)c3ncc(C)cn3)n21` (single isomer, unassigned) [Example 153.0, (1S,2S)-N-((5R)-10-methoxy-5-(methoxymethyl)-5,6-dihydro[1,2,4]triazolo[4,3-d][1,4]benzoxazepin-3-yl)-1-(5-methyl-2-pyrimidinyl)-1-(2-propanyloxy)-2-propanesulfonamide or (1S,2S)-N-((5S)-10-methoxy-5-(methoxymethyl)-5,6-dihydro[1,2,4]triazolo[4,3-d][1,4]benzoxazepin-3-yl)-1-(5-methyl-2-pyrimidinyl)-1-(2-propanyloxy)-2-propanesulfonamide] was tested. Which EC50 did it give?
Its EC50 is 250 nM.

With `Cc1cnc([C@H](OC(C)C)[C@H](C)S(=O)(=O)Nc2nnc3n2[C@H](CO)OCc2ccc(C(F)(F)F)cc2-3)nc1` (single isomer, unassigned) [Example 156.0, (1S,2S)-N-((R)-5-(hydroxymethyl)-10-(trifluoromethyl)-5,6-dihydrobenzo[f][1,2,4]triazolo[4,3-d][1,4]oxazepin-3-yl)-1-isopropoxy-1-(5-methylpyrimidin-2-yl)propane-2-sulfonamide or (1S,2S)-N-((S)-5-(hydroxymethyl)-10-(trifluoromethyl)-5,6 dihydrobenzo[f][1,2,4]triazolo[4,3-d][1,4]oxazepin-3-yl)-1-isopropoxy-1-(5-methylpyrimidin-2-yl)propane-2-snlfonamide] as the compound, how does the EC50 read?
The EC50 was 2110 nM.

`Cc1cnc([C@H](OC(C)C)[C@H](C)S(=O)(=O)Nc2nnc3n2C(CO)COc2ccc(C(F)(F)F)cc2-3)nc1` (single isomer, unassigned) [Example 157.0, (1S,2S)-N-((R)-5-(hydroxymethyl)-10-(trifluoromethyl)-5,6-dihydrobenzo[f][1,2,4]triazolo[4,3-d][1,4]oxazepin-3-yl)-1-isopropoxy-1-(5-methylpyrimidin-2-yl)propane-2-sulfonamide or (1S,2S)-N-((S)-5-(hydroxymethyl)-10-(trifluoromethyl)-5,6-dihydrobenzo[f][1,2,4]triazolo[4,3-d][1,4]oxazepin-3-yl)-1-isopropoxy-1-(5-methylpyrimidin-2-yl)propane-2-sulfonamide] was tested. Which EC50 did it give?
The EC50 was greater than 12500 nM.

How did the EC50 turn out when `COC[C@@H]1COc2ccc(OC)nc2-c2nnc(NS(=O)(=O)[C@@H](C)[C@H](C)c3ncc(OC)cn3)n21` (stereo in doubt) [Example 3.0, (2S,3R)-N-((5R)-10-methoxy-5-(methoxymethyl)-5,6-dihydropyrido[2,3-f][1,2,4]triazolo[4,3-d][1,4]oxazepin-3-yl)-3-(5-methoxy-2-pyrimidinyl)-2-butanesulfonamide and (2S,3R)-N-((5S)-10-methoxy-5-(methoxymethyl)-5,6-dihydropyrido[2,3-f][1,2,4]traizolo[4,3-d][1,4]oxazepin-3-yl)-3-(5-methoxy-2-pyrimidinyl)-2-butanesulfonamide] was run?
Its EC50 is 490 nM.

With `COC[C@@H]1COc2ccc(F)cc2-c2nnc(NS(=O)(=O)[C@@H](C)[C@H](OC)c3ncc(C)cn3)n21` (stereo in doubt) [Example 24.0, (1R,2S)-N-((5R)-10-fluoro-5-(methoxymethyl)-5,6-dihydro[1,2,4]traizolo[4,3-d][1,4]benzoxazepin-3-yl)-1-methoxy-1-(5-methyl-2-pyrimidinyl)-2-propanesulfonamide and (1R,2S)-N-((5S)-10-fluoro-5-(methoxymethyl)-5,6-dihydro[1,2,4]triazolo[4,3-d][1,4]benzoxazepin-3-yl)-1-methoxy-1-(5-methyl-2-pyrimidinyl)-2-propanesulfonamide] as the compound, how does the EC50 read?
The EC50 was 260 nM.

Which EC50 does the source give for `COC[C@@H]1COc2cnccc2-c2nnc(NS(=O)(=O)[C@@H](C)[C@@H](OC(C)C)c3ncc(C)cn3)n21` (stereo in doubt) [Example 43.0, (1S,2S)-N-((5R)-5-(methoxymethyl)-5,6-dihydropyrido[4,3-f][1,2,4]triazolo[4,3-d][1,4]oxazepin-3-yl)-1-(5-methyl-2-pyrimidinyl)-1-(2-propanyloxy)-2-propanesulfonamide and (1S,2S)-N-((5S)-5-(methoxymethyl)-5,6-dihydropyrido[4,3-f][1,2,4]traizolo[4,3-d][1,4]oxazepin-3-yl)-1-(5-methyl-2-pyrimidinyl)-1-(2-propanyloxy)-2-propanesulfonamide] here?
The EC50 was 1200 nM.

How did the EC50 turn out when `C=C1COc2ccccc2-c2nnc(NS(=O)(=O)[C@@H](C)[C@@H](OC(C)C)c3ncc(C)cn3)n21` [Example 17.0, (1S,2S)-N-(5-Methylidene-5,6-dihydro[1,2,4]triazolo[4,3-d][1,4]benzoxazepin-3-yl)-1-(5-methyl-2-pyrimidinyl)-1-(2-propanyloxy)-2-propanesulfonamide] was run?
The EC50 was 1000 nM.

`C=C1COc2ncccc2-c2nnc(NS(=O)(=O)[C@@H](C)[C@@H](OC(C)C)c3ncc(Cl)cn3)n21` [Example 60.0, (1S,2S)-1-(5-chloro-2-pyrimidinyl)-N-(5-methylidene-5,6-dihydropyrido[3,2-f][1,2,4]triazolo[4,3-d][1,4]oxazepin-3-yl)-1-(2-propanyloxy)-2-propanesulfonamide] was tested. Which EC50 did it give?
The EC50 was 850 nM.

System: heart failure rats
Assay: Cardiac contractility in vivo in heart failure rat model
Settings: alone, acute settings
Experimental: Evidence for Improvement in Cardiac Contractility In Vivo in Heart Failure Rat Model Based on ex vivo findings in isolated heart assay, APJ agonists are dosed in vivo to investigate the translation of cardiac contractility in in vivo settings. Male Lewis rats (Charles River, USA) at 2-3 months of age are used for the study. Heart failure is induced by permanent ligation of the left descending coronary artery which results in injury to the heart with an ejection fraction of <35%. APJ agonists are administered dose dependently acutely for a period of 30 min. Administration of APJ agonists lead to an increase in cardiac contractility as measured by dP/dtmax (derivative of left ventricular pressure).

`C[C@H](CS)C(=O)N1CCC[C@H]1C(=O)O` [Captopril, captopril] was tested. Which “improvement in contractility or ejection fraction” value did it give?
Its value is “does not show a marked improvement in contractility or ejection fraction acutely”.
